According to the supplement of paper PMC10307832:

Assays:
Assay in all cases: relative viability (nuclei count vs DMSO), 5 days (fraction); higher = more cells survive
[1] = compound: CC(C)(C)c1nc(-c2cccc(NS(=O)(=O)c3c(F)cccc3F)c2F)c(-c2ccnc(N)n2)s1 [Dabrafenib]
Procedure, shortened: (§1)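 Lung cancer cell lines in 1536-well plates were kept overnight at 37 °C, then pinned with five library-drug doses (not always all listed) spaced by √10 on vehicle-anchored plates. After 5 days without medium change, cells were fixed, permeabilised and Hoechst-stained in one step, imaged at 4×, and nuclei were counted with MetaXpress. Viability is treated-well nuclei divided by vehicle-well nuclei, taken as the median over plates. Plates passed only with control CV below 25% and at least one doubling.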

[2] = compound: NC(=O)c1ccc(N(C(N)=O)c2c(F)cccc2F)nc1-c1ccc(F)cc1F [VX-702]
Procedure, shortened: as §1

[3] = compound: CC(C)(C)c1nc(-c2cccc(NS(=O)(=O)c3c(F)cccc3F)c2F)c(-c2ccnc(N)n2)s1 [Dabrafenib] + CC(=O)Nc1cccc(-n2c(=O)n(C3CC3)c(=O)c3c(Nc4ccc(I)cc4F)n(C)c(=O)c(C)c32)c1 [Trametinib] (partner 0.02 µM)
Procedure, shortened: (§2)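 Values are medians from duplicate plates. Each reflects relative viability, defined as the nuclei count of treated wells over that of vehicle wells. Lung cancer cell lines in 1536-well plates were pin-tool dosed one day after seeding with one drug alone or with a fixed anchor-drug dose plus five library-drug doses (not always all listed) in √10 steps, then fixed, stained and imaged at 4× after 5 days.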

[4] = compound: NC(=O)c1ccc(N(C(N)=O)c2c(F)cccc2F)nc1-c1ccc(F)cc1F [VX-702] + CC1(C)CCC(c2ccc(Cl)cc2)=C(CN2CCN(c3ccc(C(=O)NS(=O)(=O)c4ccc(N[C@H](CCN5CCOCC5)CSc5ccccc5)c(S(=O)(=O)C(F)(F)F)c4)cc3)CC2)C1 [Navitoclax] (partner 0.5 µM)
Procedure, shortened: as §2

Cell Line | relative viability ([1]; 0.009487 µM) | relative viability ([1]; 0.09487 µM) | relative viability ([1]; 0.3 µM) | relative viability ([2]; 0.02 µM) | relative viability ([2]; 0.2 µM) | relative viability ([2]; 0.6325 µM) | relative viability ([2]; 2 µM) | relative viability ([3]; first compound 0.009487 µM) | relative viability ([3]; first compound 0.09487 µM) | relative viability ([3]; first compound 0.3 µM) | relative viability ([4]; first compound 0.02 µM) | relative viability ([4]; first compound 0.2 µM) | relative viability ([4]; first compound 0.6325 µM) | relative viability ([4]; first compound 2 µM) | relative viability ([1]; 0.03 µM) | relative viability ([3]; first compound 0.03 µM) | relative viability ([1]; 0.003 µM) | relative viability ([3]; first compound 0.003 µM)
NCI-H322M | 1.14 | 0.943 | 0.9 | 0.979 | 0.888 | 1.01 | 1.02 | 0.492 | 0.53 | 0.532 | 1.2 | 1.02 | 1.19 | 1.28 | – | – | – | –
NCI-H441 | 0.96 | 0.51 | 0.766 | 1.14 | 0.952 | 0.934 | 0.992 | 0.53 | 0.681 | 0.829 | 0.705 | 0.632 | 0.511 | 0.871 | 1.01 | 0.54 | – | –
NCI-H460 | 0.954 | 0.968 | 0.985 | 1.02 | 0.95 | 1.06 | 0.989 | 0.171 | 0.317 | 0.341 | 1.15 | 1.03 | 1.08 | 1.37 | 0.919 | 0.115 | 0.965 | 0.144
NCI-H520 | 0.941 | 0.884 | 0.921 | 0.969 | 0.925 | 1.03 | 1.07 | 0.653 | 0.627 | 0.628 | 1 | 0.985 | 0.953 | 1.1 | 0.795 | 0.541 | 0.974 | 0.665
NCI-H596 | 1.13 | 1.03 | 1.1 | 1.04 | 0.829 | 1.02 | 1.07 | 0.84 | 0.747 | 0.704 | 0.959 | 0.946 | 0.881 | 0.994 | 0.768 | 0.707 | – | –
NCI-H647 | 0.967 | 0.871 | 1.01 | 0.855 | 0.874 | 0.996 | 1.14 | 0.394 | 0.579 | 0.553 | 1.1 | 1.02 | 1.02 | 1.23 | 0.71 | 0.306 | – | 0.42
NCI-H727 | 0.998 | 0.902 | 1.1 | 1.09 | 1 | 0.84 | 1.04 | 0.353 | 0.417 | 0.354 | 0.439 | 0.508 | 0.498 | 0.445 | 0.782 | – | – | 0.355
NCI-H838 | 1.07 | 0.896 | 1.05 | 0.968 | 0.948 | 0.984 | 1.07 | 0.614 | 0.429 | 0.506 | 1.25 | 1.13 | 1.19 | 1.36 | 0.889 | 0.428 | 0.966 | 0.51
NCI-H1355 | 0.986 | 0.739 | 1.04 | 1.07 | 0.997 | 1.02 | 1.08 | 0.509 | 0.471 | 0.535 | 0.988 | 0.819 | 0.902 | 1.01 | 0.986 | 0.456 | – | –
NCI-H1395 | 0.971 | 0.774 | 0.788 | 0.971 | 0.909 | 0.97 | 1.03 | 1.18 | 0.889 | 0.984 | 1.48 | 1.05 | 1.02 | 1.37 | 0.854 | 0.988 | – | –
NCI-H1437 | 0.971 | 0.971 | 1.02 | 0.995 | 0.973 | 1.06 | 1.15 | 0.502 | 0.579 | 0.73 | 1.07 | 1.08 | 1.23 | 1.29 | 1.02 | 0.688 | 0.939 | 0.522
NCI-H1650 | 1.26 | 1.07 | 1.36 | 1 | 1.01 | 1.09 | 1.02 | 0.609 | 0.666 | 0.673 | 1.1 | 1.16 | 1.43 | 1.31 | 0.854 | 0.552 | 0.944 | 0.671
NCI-H1651 | 0.939 | 1.02 | 0.948 | 1.02 | 0.985 | 0.998 | 1.06 | 0.843 | 0.861 | 0.814 | 0.933 | 0.96 | 0.982 | 1.27 | 0.953 | 0.823 | 0.977 | 0.85
NCI-H1666 | 0.943 | 0.984 | 1.01 | 0.968 | 0.854 | 0.972 | 0.75 | 0.782 | 0.832 | 0.885 | 0.883 | 0.884 | 0.843 | 1.02 | 1.03 | 0.837 | 1.01 | 0.818
NCI-H1734 | 1.08 | 0.765 | 0.891 | 1.04 | 0.919 | 0.876 | 0.703 | 0.718 | 0.721 | 0.727 | 0.814 | 0.695 | 0.685 | 0.743 | 0.716 | 0.627 | – | –
NCI-H1755 | 1.03 | 0.94 | 0.971 | 1.01 | 1.03 | 1.1 | 0.998 | 0.733 | 0.75 | 0.749 | 1.08 | 0.971 | 1.05 | 1.04 | 0.875 | 0.758 | 0.99 | 0.779

Cell Line | relative viability ([1]; 0.009487 µM) | relative viability ([1]; 0.09487 µM) | relative viability ([1]; 0.3 µM) | relative viability ([2]; 0.02 µM) | relative viability ([2]; 0.2 µM) | relative viability ([2]; 0.6325 µM) | relative viability ([2]; 2 µM) | relative viability ([3]; first compound 0.009487 µM) | relative viability ([3]; first compound 0.09487 µM) | relative viability ([3]; first compound 0.3 µM) | relative viability ([4]; first compound 0.02 µM) | relative viability ([4]; first compound 0.2 µM) | relative viability ([4]; first compound 0.6325 µM) | relative viability ([4]; first compound 2 µM) | relative viability ([1]; 0.03 µM) | relative viability ([3]; first compound 0.03 µM) | relative viability ([1]; 0.003 µM) | relative viability ([3]; first compound 0.003 µM)
NCI-H1792 | 0.915 | 0.679 | 0.806 | 0.763 | 0.87 | 0.866 | 1.05 | 0.484 | 0.439 | 0.474 | 0.718 | 0.621 | 0.695 | 0.753 | 0.877 | 0.405 | – | –
NCI-H1793 | 1.29 | 0.761 | 1.05 | 0.916 | 0.79 | 0.968 | 0.844 | 0.416 | 0.451 | 0.412 | 0.601 | 0.405 | 0.497 | 0.542 | – | – | – | –
NCI-H1915 | 1.04 | 0.523 | 0.579 | 1.08 | 1 | 1 | 1.05 | 0.249 | 0.288 | 0.313 | 0.766 | 0.725 | 0.849 | 0.916 | 0.823 | 0.264 | 1.03 | 0.295
NCI-H1944 | 0.997 | 0.952 | 0.985 | 0.941 | 0.985 | 1.01 | 0.443 | 0.426 | 0.401 | 0.404 | 1.04 | 1.03 | 1.15 | 0.973 | 0.841 | 0.403 | 0.911 | 0.409
NCI-H1975 | 0.982 | 0.778 | 0.854 | 0.97 | 0.923 | 1.08 | 1.22 | 0.316 | 0.321 | 0.367 | 1.09 | 1.06 | 1.08 | 1.23 | 0.925 | 0.317 | 0.936 | 0.214
NCI-H1993 | 0.945 | 1.12 | 1.4 | 0.876 | 0.874 | 1.04 | 0.862 | 0.474 | 0.687 | 0.621 | 0.805 | 0.874 | 0.896 | 0.835 | 0.966 | 0.508 | 0.913 | 0.53
NCI-H2009 | 0.974 | 0.625 | 0.628 | 1.23 | 1.15 | 1.2 | 1.26 | 0.266 | 0.354 | 0.399 | 1.18 | 1.2 | 1.25 | 1.47 | 0.894 | 0.312 | 0.883 | 0.262
NCI-H2023 | 1.01 | 0.948 | 1.07 | 1.03 | 1.04 | 1.01 | 1.18 | 0.547 | 0.581 | 0.663 | 1.02 | 1.01 | 0.89 | 1.03 | 1.01 | 0.55 | 0.877 | 0.533
NCI-H2085 | 1.06 | 0.999 | 1.09 | 1.06 | 1.05 | 1 | 0.99 | 0.583 | 0.589 | 0.633 | 1.21 | 1.24 | 1.12 | 1.2 | 1 | 0.46 | 0.846 | 0.523
NCI-H2087 | 1.08 | 0.687 | 0.898 | 1.17 | 1.01 | 0.997 | 1.08 | 0.18 | 0.209 | 0.181 | 0.975 | 0.838 | 0.92 | 1.05 | 0.853 | 0.234 | – | –
NCI-H2126 | 1.06 | 1.02 | 1.08 | 1.03 | 0.963 | 1.02 | 0.954 | 0.532 | 0.6 | 0.619 | 0.832 | 0.814 | 0.779 | 0.698 | 0.994 | 0.475 | 0.875 | 0.468
NCI-H2170 | 1.01 | 0.815 | 0.895 | 1.09 | 0.946 | 1.05 | 1 | 0.982 | 0.839 | 0.919 | 0.625 | 0.372 | 0.665 | 0.607 | 0.906 | 0.842 | 0.991 | 0.908
NCI-H2228 | 0.987 | 0.902 | 0.944 | 1.11 | 1.06 | 0.84 | 1.08 | 0.45 | 0.597 | 0.658 | 1.29 | 0.973 | 0.886 | 0.952 | 0.994 | 0.497 | 0.864 | 0.269
NCI-H2347 | 1.07 | 0.811 | 0.89 | 1.05 | 1.1 | 1.04 | 1.01 | 0.304 | 0.265 | 0.313 | 0.887 | 0.712 | 0.756 | 0.792 | 0.877 | 0.247 | – | –
NCI-H2405 | 0.931 | 0.898 | 0.961 | 1.09 | 0.941 | 0.978 | 1.12 | 0.46 | 0.475 | 0.523 | 0.813 | 0.773 | 0.89 | 1.2 | 0.7 | 0.409 | – | –
